Values quoted from earlier work as cited in US20250120959A1, “NEW FORMULATIONS OF PITOLISANT AND METHODS OF USE” (Bioprojet Pharma, priority 2023, published 2025).
Structures can show the parent of a compound that is named as a salt.

For Clc1ccc(CCCOCCCN2CCCCC2)cc1 [Formula (Ia), 1-[3-[3-(4-chlorophenyl)propoxy]propyl]-piperidine monohydrochloride], the pKa is given as “approximately 10.5”.
